Test results from patent US7977366B2, “Treating an inflammatory disorder or inhibiting respiratory burst in adherent neutrophils with chemical inhibitors of neutrophil activation” (Cornell Research Foundation, Inc., priority 2003, dated 2011).
“Also recorded” adds a separate entry of the source.

Tests used:
Syk = assay: TNF and adhesion triggered tyrosine phosphorylation of Syk in neutrophils (immunoprecipitation, western blot); format: cell-based, human; details: for inhibition of TNF and adhesion triggered tyrosine phosphorylation of Syk: moderately inhibited; for TNF and adhesion triggered tyrosine phosphorylation (activation) of Syk: result in words
Procedure: Tissue culture plates (Primaria, Falcon) were coated with 3 ml of FBS in 5% CO2 at 37° C. for at least 1 h and washed twice with 0.9% saline. Isolated human neutrophils (1.5×10^6) were added to each plate containing 4 ml of reaction mixture, incubated with each compound at 37° C. for 30 min, and stimulated with either buffer control or TNF (100 ng/ml). When cells were fully spread (20-40 min), they were treated with 5 mM diisopropylfluorophosphate to inhibit serine proteases and lysed with either 125 μl of SDS lysis buffer (10 mM Tris-HCl, pH 7.6, 150 mM NaCl, 1% SDS, 1 mM PMSF, 1 mM Na pyrophosphate, 1 mM NaF, 1 mM vanadate, 5 μg/ml each of aprotinin, leupeptin, chymostatin, pepstatin A) for western blot, or with 200 μl of non-denaturing modified RIPA buffer (10 mM Tris-HCl, pH 7.6, 150 mM NaCl, 1% Triton-X100, 1 mM PMSF, 1 mM Na pyrophosphate, 1 mM NaF, 1 mM vanadate, 5 μg/ml each of aprotinin, leupeptin, chymostatin, pepstatin A) for immunoprecipitation. The cell lysate was passed through a 26-gauge needle six times to shear DNA and centrifuged at 20,000×g for 15 min to remove cell debris and DNA. The protein concentration was determined using a Bio-Rad (Indianapolis, Ind.) kit. Cell lysates were separated by SDS-PAGE and transferred electrophoretically to nitrocellulose membranes (Schleicher & Schuell, Inc., Keene, N.H.). The membranes were incubated with 5% milk in TBST ([…], 0.1% Tween-20) for 1 h at 37° C. and then overnight at 4° C. with anti-phosphotyrosine antibody (Santa Cruz), anti-Syk antibody (Transduction Laboratories, Newington, N.H.), anti-phospho-specific Pyk2 antibodies (Biosource International, Camarillo, Calif.), or anti-Pyk2 antibody (Upstate Biotech, Waltham, Mass.). Membranes were washed with TBST and incubated with secondary Ab conjugated with HRP in 5% milk in TBST for 1 h at 37° C. After further washing with TBST, bound antibody was detected by enhanced chemiluminescence (Pierce ECL, Amersham Pharmacia, Piscataway, N.J.).
Also investigated was the impact of the compounds of the present invention on several known tyrosine kinases such as Src, Syk, and Pyk2, which are shown to be critical in the signaling pathways triggered by TNF. Kinase assays were performed according to the instructions provided by United Bioinformatica, Inc. ((UBI) Calgary, AB, Canada), from which recombinant Src and Syk were purchased. Briefly, after incubation of recombinant Src (40 U) (UBI, Calgary, AB, Canada) with each compound at RT for 30 min, Src kinase reaction buffer (100 mM Tris-HCl, pH 7.2, 125 mM MgCl2, 25 mM MnCl2, 2 mM EGTA, 0.25 mM NaOV4, 2 mM DTT), Src kinase substrate peptide (375 μM, UBI, Calgary, AB, Canada), and [γ-32P]ATP were added to the enzyme. After incubation at 30° C. for 10 min, the reaction was stopped by addition of 40% trichloroacetic acid (TCA). Samples were transferred to a P81 paper square (UBI, Calgary, AB, Canada), the unincorporated radioactivity was washed off with 0.75% phosphoric acid and acetone, and the assay square was placed in a scintillation counter. For Syk kinase assay, reaction buffer contained 50 mM Tris-HCl, pH 7.5, 0.1 mM EGTA, 0.1 mM NaOV4, 0.15 M 2-mercaptoethanol and substrate was poly (Glu-4-Tyr)(4:1) (CSI Biointernational, France). […] It appears that these compounds block—partially by Comp I and II and completely by Comp III and IV—upstream signaling events for Syk activation rather than directly blocking Syk activity.

human neutrophils [1] = assay: Neutrophil spreading on FBS-coated glass coverslips (phase-contrast microscopy); format: cell-based; details: TNF 100 ng/ml
Procedure: Glass coverslips were placed in 12 well tissue culture plate and coated with FBS in 5% CO2 at 37° C. for at least 1 h and washed three times with 0.9% saline. Neutrophils (2×10^6) were added to each well containing a FBS-coated glass coverslip and 1 ml of reaction mixture and incubated or not with each compound at 37° C. for 30 min before stimulation with TNF (100 ng/ml), PMA (100 ng/ml) or an equal volume of KRPG. Cells were fixed with 2% paraformaldehyde and 3.7% formaldehyde buffer, and photographed with phase-contrast microscope.
To determine whether any of these compounds are implicated in cytoskeletal rearrangement, neutrophils were treated with a compound of the present invention or DMSO and then activated with PMA or TNF. Human neutrophils, isolated as described herein above were plated on FBS-coated glass coverslips and incubated or not with a compound of the present invention at 37° C. for 30 min, followed by stimulation with TNF (100 ng/ml), PMA (100 ng/ml) or an equal volume of KRPG, fixed, and photographed with phase-contrast microscope. Neutrophils adhere and fully spread when activated. However, cells exposed to TNF after incubation with Comp I-IV were arrested in spreading. These compounds seem to block different stages of cell spreading. […] They display almost round and close to non-stimulated cell morphology to quite advanced, yet arrested phenotype before full spreading. […] None of the compounds impeded cell spreading induced by PMA.

human neutrophils [2] = assay: Reversibility of inhibition of TNF triggered respiratory burst after washing; format: cell-based; details: washed twice with cold KRPG before TNF 100 ng/ml
Procedure: Neutrophils were incubated with test compounds I-V or DMSO at 37° C. for 30 min in FBS coated tubes (Falcon, Cat. Number 352063), washed twice with cold KRPG, and plated in 96 well plates before stimulation with TNF (100 ng/ml) or an equivalent volume of KRPG buffer as a control. On a separate plate, compounds were added back to the neutrophils that were washed off compounds, and cells were stimulated to ensure neutrophils' capacity to respond. Neutrophils incubated with each compound without washing were also stimulated for comparison.

Compound	inhibition of TNF and adhesion triggered tyrosine phosphorylation of Syk (Syk)	cell spreading triggered by TNF (human neutrophils [1])	reversibility of inhibition of TNF triggered respiratory burst (human neutrophils [2])	TNF and adhesion triggered tyrosine phosphorylation (activation) of Syk (Syk)
Cc1nc(N/N=C/c2ccccc2O)c2c3c(sc2n1)CCCC3 [Comp I, 2-[(2-Methyl-5,6,7,8-tetrahydro-benzo[4,5]thieno [2,3-a]pyrimidin-4-yl)-hydrazonomethyl]-phenol]	about 50%	very heterogeneous morphology	–	–
O=C1CC(c2ccccc2)=NN1c1cccc(Cl)c1 [Comp II, 2-(3-Chloro-phenyl)-5-phenyl-2,4-dihydro-pyrazol-3-one]	about 50%	arrested after flattening and extending several filopodia; also recorded: inhibited	greatest reversibility	did not block
C(=N\Nc1ncnc2sc3c(c12)CCCC3)/c1cccnc1 [Comp III, N-Pyridin-3-ylmethylene-N-(5,6,7,8-tetrahydro-benzo[4,5] [2,3-a]pyrimidin-4-yl)-hydrazine]	–	after extending a few pseudopodia; also recorded: block cell spreading at the earliest stage	–	completely inhibited
O=C(CSc1nc2ccccc2s1)N/N=C/c1cc([N+](=O)[O-])ccc1O [Comp IV, (Benzothiazol-2-ylsulfanyl)-acetic acid (2-hydroxy-5-nitro-benzylidene) -hydrazide]	–	arrested after flattening and extending several filopodia	–	completely inhibited
